The test system of series [1] is pooled cryopreserved hepatocytes. In words: Metabolic stability in hepatocytes (human). It counts as in vitro ADME. The conditions noted are these: 1 μM test compound. The method, boiled down: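 Test compound at 1 μM (0.03% DMSO) incubated with 0.5 million viable pooled cryopreserved hepatocytes/mL at 37° C with shaking; sampled 0–180 min. Parent loss measured by LC-MS/MS versus time-zero, and intrinsic clearance derived from percentage-remaining plots, scaled to L/h/kg and corrected for hepatocyte binding.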

Series [2] concerns CL097 triggered IFNα and TNFα release in human whole blood. In words: Ex vivo human IFNα and TNFα release inhibition (whole blood assay, CL097 triggered). It counts as cell-based. Particulars: CL097 2 μg/mL, 3 h 30 min. The source says:
4.10.1. Ex Vivo Human IFNα and TNFα Release Inhibition (Whole Blood Assay)
The aim of the assay is to evaluate the activity of compounds of the invention on the activated TLR/IRAK-4 pathway in an ex vivo human whole blood setting. Toll-like receptors (TLRs) are pattern recognition receptors that recognize a wide variety of microbial molecules, called pathogen-associated molecular patterns (PAMPs). Human TLR7 and TLR8 recognize imidazoquinoline compounds (e.g., CL097—CAS n #1026249-18-2) and single stranded RNAs as their natural ligands. Activation of TLRs leads to the production of several cytokines (e.g., IFNα, TNFα, IL-8, IL-6) by the TLR agonist-treated cells, whereas IRAK4 leads to the production of IFNα. Cytokine release is used as readout in this assay and represents a measure for the level of inhibition of the TLR/IRAK-4 pathway by the tested compound. It should be noted that in the context of the complete organism, other sources for these cytokines exist that are not dependent on the TLR/IRAK-4 pathway, such as e.g., macrophages (upon activation of the Fcγ receptor (Yan et al. 2012)) or T cells (upon activation of the T cell receptor (Brehm, Daniels, and Welsh 2005)).
4.10.1.1. Experimental Design
Blood was collected from healthy volunteers into lithium heparin tubes by venipuncture, then gently inverted several times to prevent clotting and incubated for at least 15 min at 37° C. on a rocking mixer shaker. Then, 100 μL of blood was dispensed into polypropylene 96-well microplate and pre-incubated in duplicate with 0.3% DMSO or test compound at different concentrations (from 30 to 0.01 μM, 3-fold dilutions to get 0.3% DMSO at the final) for 15 min at 37° C. After this pre-incubation, blood was triggered with CL097 (2 μg/mL from 1 mg/mL solution in water; InvivoGen, tlr1-c97) for 3 h 30 min at 37° C. Microtubes were centrifuged at 5000×g for 10 min at 4° C. and approximately 40 μL of plasma were collected into a polystyrene 96-well plate. Plasma could be analyzed freshly, within 30 min after triggering, or frozen at −80° C. Finally, the quantification of TNFα and IFNα were performed in the plasma using AlphaLISA Kit for […] according to the manufacturer's instructions and read on the Ensight (PerkinElmer).
A standard curve was created by plotting on log-log the mean absorbance on the y-axis against the concentration on the x-axis and a 4 PL was made through the points. For each blood sample, the IFNα concentrations of the samples were determined from the fit.
Data were then expressed as a percentage of inhibition (PIN) for each replicate using the formula:
With mean IFNα with CL097=mean IFNα concentration of replicate samples triggered with CL097; IFNαsample1=IFNα concentration of sample 1; mean IFNα with vehicle=mean IFNα concentration of replicate samples treated with vehicle.
For each blood sample, the TNFα concentrations of the samples were determined from the fit. Data were then expressed as a percentage of inhibition (PIN) for each replicate using the formula:
With mean TNFα with CL097=mean TNFα concentration of replicate samples triggered with CL097; TNFαsample1=TNFα concentration of sample 1; mean TNFα with vehicle=mean TNFα concentration of replicate samples treated with vehicle.
Curve fitting for pIC50 determination were generated using mean PIN±sem. Graphs and pIC50 calculations were derived using Prism 5.03 software (GraphPad).

The record followed here is patent publication US20220194938A1, “NOVEL COMPOUNDS AND PHARMACEUTICAL COMPOSITIONS THEREOF FOR THE TREATMENT OF INFLAMMATORY DISORDERS” (GALAPAGOS NV, priority 2019, published 2022).

Like-named read-outs stand apart in the source and are kept apart here. Bounds are passed on as bounds.

What is called IC50 is the concentration that gives 50% inhibition. For the molecule `COCCc1cn2cc(NC(=O)c3cccc(C(F)(F)F)n3)c(OC)cc2n1` [Compound 35, N-[7-methoxy-2-(2-methoxyethyl)imidazo[1,2-a]pyridin-6-yl]-6-(trifluoromethyl)pyridine-2-carboxamide], the “Human (Perc. remaining at 90 min)” value in series [1] was found to be 64.9%. In addition, the IC50 in series [2] (read-out: IFNα IC50) and in series [2] (read-out: TNFα IC50) was greater than 5000 nM throughout.
In the case of `CCOc1c(NC(=O)c2cccn(C3CC3)c2=O)cn2cc(CCC(C)(C)O)nc2c1F` [Compound 37, 1-cyclopropyl-N-[7-ethoxy-8-fluoro-2-(3-hydroxy-3-methyl-butyl)imidazo[1,2-a]pyridin-6-yl]-2-oxo-pyridine-3-carboxamide], in series [1], the “Human (Perc. remaining at 90 min)” value came out at 99.7%. Further, the IC50 in series [2] (read-out: TNFα IC50) lay in the range of 1000 to 5000 nM.
As for `COc1c(NC(=O)c2cccn(C3CC3)c2=O)cn2cc(CCC(C)(C)O)nc2c1F` [Compound 42, 1-cyclopropyl-N-[8-fluoro-2-(3-hydroxy-3-methyl-butyl)-7-methoxy-imidazo[1,2-a]pyridin-6-yl]-2-oxo-pyridine-3-carboxamide], in series [1], the “Human (Perc. remaining at 90 min)” value came to 96.75%. Besides, the IC50 in series [2] (read-out: IFNα IC50) lay in the range of 500 to 1000 nM; in series [2] (read-out: TNFα IC50), 0.1 to 500 nM.
In the same order, the values of `CC(C)(O)CCc1cn2cc(NC(=O)c3cccc(C(F)(F)F)n3)c(C(=O)NCC(F)F)cc2n1` [Compound 48, N-(2,2-difluoroethyl)-2-(3-hydroxy-3-methylbutyl)-6-(6-(trifluoromethyl)picolinamido)imidazo[1,2-a]pyridine-7-carboxamide] are 100.95%, 1000 to 5000 nM and 1000 to 5000 nM.
